Test results from PubChem BioAssay (NCI).
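Each compound was tested at five concentrations against cells in 96-well plates for 48 hours. GI50 = concentration required for 50% inhibition of growth. Definition used: TGI = concentration required for complete inhibition of growth.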

What was measured:
Assay in all cases: inhibition of tumour cell growth, NCI panel, 48 h
786-0 renal = test system: 786-0 renal
A498 renal = test system: A498 renal
A549 NSCLC = test system: A549 NSCLC
ACHN renal = test system: ACHN renal
BT-549 breast = test system: BT-549 breast
CAKI-1 renal = test system: CAKI-1 renal
CCRF-CEM leukemia = test system: CCRF-CEM leukemia
COLO 205 colon = test system: COLO 205 colon
DU-145 prostate = test system: DU-145 prostate
EKVX NSCLC = test system: EKVX NSCLC
HCC-2998 colon = test system: HCC-2998 colon
HCT-116 colon = test system: HCT-116 colon
HCT-15 colon = test system: HCT-15 colon
HL-60(TB) leukemia = test system: HL-60(TB) leukemia
HOP-62 NSCLC = test system: HOP-62 NSCLC
HOP-92 NSCLC = test system: HOP-92 NSCLC
HS 578T breast = test system: HS 578T breast
HT29 colon = test system: HT29 colon
IGROV1 ovarian = test system: IGROV1 ovarian
K-562 leukemia = test system: K-562 leukemia
KM12 colon = test system: KM12 colon
LOX IMVI melanoma = test system: LOX IMVI melanoma
M14 melanoma = test system: M14 melanoma
MALME-3M melanoma = test system: MALME-3M melanoma
MCF7 breast = test system: MCF7 breast
MDA-MB-231 breast = test system: MDA-MB-231 breast
MDA-MB-435 = test system: MDA-MB-435
MOLT-4 leukemia = test system: MOLT-4 leukemia
NCI-H226 lung = test system: NCI-H226 lung
NCI-H23 lung = test system: NCI-H23 lung
NCI-H460 lung = test system: NCI-H460 lung
NCI-H522 lung = test system: NCI-H522 lung
NCI/ADR-RES ovarian = test system: NCI/ADR-RES ovarian
OVCAR-3 ovarian = test system: OVCAR-3 ovarian
OVCAR-4 ovarian = test system: OVCAR-4 ovarian
OVCAR-5 ovarian = test system: OVCAR-5 ovarian
OVCAR-8 ovarian = test system: OVCAR-8 ovarian
PC-3 prostate = test system: PC-3 prostate
RPMI-8226 leukemia = test system: RPMI-8226 leukemia
RXF 393 renal = test system: RXF 393 renal
SF-268 CNS = test system: SF-268 CNS
SF-295 CNS = test system: SF-295 CNS
SF-539 CNS = test system: SF-539 CNS
SK-MEL-2 melanoma = test system: SK-MEL-2 melanoma
SK-MEL-28 melanoma = test system: SK-MEL-28 melanoma
SK-MEL-5 melanoma = test system: SK-MEL-5 melanoma
SK-OV-3 ovarian = test system: SK-OV-3 ovarian
SN12C renal = test system: SN12C renal
SNB-19 CNS = test system: SNB-19 CNS
SNB-75 CNS = test system: SNB-75 CNS
SR leukemia = test system: SR leukemia
SW-620 colon = test system: SW-620 colon
T-47D breast = test system: T-47D breast
TK-10 renal = test system: TK-10 renal
U251 CNS = test system: U251 CNS
UACC-257 melanoma = test system: UACC-257 melanoma
UACC-62 melanoma = test system: UACC-62 melanoma
UO-31 renal = test system: UO-31 renal

## CCCCCCC1N=C(N)N=C(N)N1c1cccc(Cl)c1 (stereo unspecified)
786-0 renal
  GI50: 0.289 µM
  TGI: 13.3 µM
A498 renal
  GI50: 2.67 µM
  TGI: 15.6 µM
A549 NSCLC
  GI50: 0.181 µM
  TGI: > 44.5 µM
ACHN renal
  GI50: 9.28 µM
  TGI: > 100 µM
BT-549 breast
  GI50: 0.506 µM
  TGI: 14.5 µM
CAKI-1 renal
  GI50: 21.8 µM
  TGI: > 78.5 µM
CCRF-CEM leukemia
  GI50: 0.442 µM
  TGI: > 66.8 µM
COLO 205 colon
  GI50: 1.44 µM
  TGI: 18.4 µM
DU-145 prostate
  GI50: 0.587 µM
  TGI: 18 µM
EKVX NSCLC
  GI50: 0.307 µM
  TGI: 19.3 µM
HCC-2998 colon
  GI50: 0.668 µM
  TGI: 11.2 µM
HCT-116 colon
  GI50: 0.0747 µM
  TGI: 14.3 µM
HCT-15 colon
  GI50: 21.6 µM
  TGI: > 100 µM
HL-60(TB) leukemia
  GI50: 1.14 µM
  TGI: 10.7 µM
HOP-62 NSCLC
  GI50: 0.436 µM
  TGI: 10.9 µM
HOP-92 NSCLC
  GI50: 0.491 µM
  TGI: 5.94 µM
HS 578T breast
  GI50: 0.871 µM
  TGI: 9.22 µM
HT29 colon
  GI50: 0.0514 µM
  TGI: 7.23 µM
IGROV1 ovarian
  GI50: 0.199 µM
  TGI: 5.88 µM
K-562 leukemia
  GI50: 0.841 µM
  TGI: 24.6 µM
KM12 colon
  GI50: 0.421 µM
  TGI: 7.26 µM
LOX IMVI melanoma
  GI50: 0.0917 µM
  TGI: 13.2 µM
M14 melanoma
  GI50: 0.668 µM
  TGI: 15.5 µM
MALME-3M melanoma
  GI50: 0.765 µM
  TGI: 15.6 µM
MCF7 breast
  GI50: 0.368 µM
  TGI: 12.7 µM
MDA-MB-231 breast
  GI50: 1.93 µM
  TGI: 22.5 µM
MDA-MB-435
  GI50: 0.0479 µM
  TGI: 13.2 µM
MOLT-4 leukemia
  GI50: 0.94 µM
  TGI: 17.8 µM
NCI-H226 lung
  GI50: 1.75 µM
  TGI: 24.5 µM
NCI-H23 lung
  GI50: 0.496 µM
  TGI: 15 µM
NCI-H460 lung
  GI50: 0.0873 µM
  TGI: 12.7 µM
NCI-H522 lung
  GI50: 0.701 µM
  TGI: 14.1 µM
NCI/ADR-RES ovarian
  GI50: 75.8 µM
  TGI: > 100 µM
OVCAR-3 ovarian
  GI50: 0.863 µM
  TGI: 10.5 µM
OVCAR-4 ovarian
  GI50: 1.76 µM
  TGI: 38.2 µM
OVCAR-5 ovarian
  GI50: 0.794 µM
  TGI: 23.1 µM
OVCAR-8 ovarian
  GI50: 0.612 µM
  TGI: 19.5 µM
PC-3 prostate
  GI50: 0.0576 µM
  TGI: 16 µM
RPMI-8226 leukemia
  GI50: 0.904 µM
  TGI: 22 µM
RXF 393 renal
  GI50: 3.44 µM
  TGI: 15.7 µM
SF-268 CNS
  GI50: 0.0591 µM
  TGI: 11.5 µM
SF-295 CNS
  GI50: 0.102 µM
  TGI: 1.71 µM
SF-539 CNS
  GI50: 0.0846 µM
  TGI: 5.76 µM
SK-MEL-2 melanoma
  GI50: 11.3 µM
  TGI: 27.7 µM
SK-MEL-28 melanoma
  GI50: 2.34 µM
  TGI: 17.4 µM
SK-MEL-5 melanoma
  GI50: 0.474 µM
  TGI: 13 µM
SK-OV-3 ovarian
  GI50: 1.22 µM
  TGI: 20.9 µM
SN12C renal
  GI50: 0.559 µM
  TGI: 13.1 µM
SNB-19 CNS
  GI50: 0.255 µM
  TGI: 8.58 µM
SNB-75 CNS
  GI50: 0.347 µM
  TGI: 6.75 µM
SR leukemia
  GI50: 0.748 µM
  TGI: > 42.7 µM
SW-620 colon
  GI50: 0.188 µM
  TGI: 15.9 µM
T-47D breast
  GI50: 6.19 µM
  TGI: 23.1 µM
TK-10 renal
  GI50: 3.66 µM
  TGI: 25.9 µM
U251 CNS
  GI50: 0.0616 µM
  TGI: 13.7 µM
UACC-257 melanoma
  GI50: 6.37 µM
  TGI: 29.5 µM
UACC-62 melanoma
  GI50: 0.527 µM
  TGI: 12.3 µM
UO-31 renal
  GI50: 31.5 µM
  TGI: 97.5 µM
